Common to all, as to assay type: biochemical
In one test the target is CDK1/CCNB1 (Homo sapiens, UniProt P06493). The test is described as follows: CDK1 homogeneous time-resolved fluorescence (HTRF) kinase assay. The following applies: CDK1/CCNB. The procedure, abridged: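 Kinase activity is measured as Lance signal (665 nm, or 665/615 nm ratio) from europium-labelled anti-phospho-Thr37/46 antibody binding ULight-4E-BP1 peptide. Reactions contain 0.5 nM enzyme, 1 mM ATP, 1% DMSO and run 60 min at 23 °C before EDTA quench.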

For another test, the target named is CDK2/CCNE1 (Homo sapiens, UniProt P24941). Nature of the test: CDK2 homogeneous time-resolved fluorescence (HTRF) kinase assay. The following applies: CDK2/CCNE. Summed up: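 An HTRF format measures CDK2/CCNE1 (3 nM) phosphorylating a 4E-BP1 Thr37/46 peptide at high (1 mM) ATP. Reactions run one hour at 23 °C, then EDTA-quenched and probed with Eu-labelled phospho-specific antibody.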

For a further test, the target named is CDK6/CCND1 (Homo sapiens, UniProt Q00534). Nature of the test: CDK6 homogeneous time-resolved fluorescence (HTRF) kinase assay. The following applies: CDK6/CCND. Summed up: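 Recombinant CDK6/CCND1 (1 nM final) was preincubated with compound for 20 min at 23 °C in HEPES buffer with MgCl2, EGTA, DTT and Tween 20. Kinase reaction then ran 60 min at 23 °C with 1 mM ATP and 50 nM ULight-4E-BP1 (Thr37/46) peptide, and was stopped with EDTA.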

A further test addresses CDK4/CCND3 (Homo sapiens, UniProt P11802). The test is described as follows: CDK4 homogeneous time-resolved fluorescence (HTRF) kinase assay. The note with it: CDK4/CCND. Summed up: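 IC50 values were derived from 11-point half-log dilutions, usually starting at 10 μM. Compound was first held for 20 min at 23 °C with 1.5 nM CDK4/CCND3. 1 mM ATP and 50 nM ULight-eIF4E-BP1 (Thr37/46) substrate were then added for 60 min, and the TR-FRET 665 nm signal was measured after EDTA stop and Eu-anti-phospho-4E-BP1 detection.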
(In general: In TR-FRET formats the signal depends on donor and acceptor labels being close together.)

The mark [1] stands for this setting: >250 nM marked x, read-out: CDK1/CCNB IC50 >250 nM.
Setting [2] is: <25 nM, read-out: CDK2/CCNE IC50 <25 nM.
Where [3] appears, read: >250 nM marked x, read-out: CDK6/CCND IC50 >250 nM.
Where [4] appears, read: 25-250 nM marked x, read-out: CDK4/CCND IC50 25-250 nM.
[5] abbreviates: 25-250 nM marked x, read-out: CDK2/CCNE IC50 25-250 nM.
Where [6] appears, read: >250 nM marked x, read-out: CDK4/CCND IC50 >250 nM.
Setting [7] is: 25-250 nM marked x, read-out: CDK1/CCNB IC50 25-250 nM.
[8] abbreviates: 25-250 nM marked x, read-out: CDK6/CCND IC50 25-250 nM.
The mark [9] stands for this setting: >250 nM marked x, read-out: CDK2/CCNE IC50 >250 nM.

Where two headings read alike, the source gives them in different places.

Sequence of CDK4/CCND3 (P11802 whole entry): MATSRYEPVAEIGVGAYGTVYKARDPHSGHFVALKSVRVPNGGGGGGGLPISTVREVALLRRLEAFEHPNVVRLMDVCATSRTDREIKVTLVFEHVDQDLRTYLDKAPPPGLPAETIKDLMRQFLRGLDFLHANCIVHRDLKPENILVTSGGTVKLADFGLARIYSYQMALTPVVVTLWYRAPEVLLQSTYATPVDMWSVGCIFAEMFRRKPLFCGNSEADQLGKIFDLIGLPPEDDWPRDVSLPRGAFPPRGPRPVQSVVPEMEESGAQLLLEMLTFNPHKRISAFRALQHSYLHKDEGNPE
Sequence of CDK4/CCND3 (P30281 whole entry partner): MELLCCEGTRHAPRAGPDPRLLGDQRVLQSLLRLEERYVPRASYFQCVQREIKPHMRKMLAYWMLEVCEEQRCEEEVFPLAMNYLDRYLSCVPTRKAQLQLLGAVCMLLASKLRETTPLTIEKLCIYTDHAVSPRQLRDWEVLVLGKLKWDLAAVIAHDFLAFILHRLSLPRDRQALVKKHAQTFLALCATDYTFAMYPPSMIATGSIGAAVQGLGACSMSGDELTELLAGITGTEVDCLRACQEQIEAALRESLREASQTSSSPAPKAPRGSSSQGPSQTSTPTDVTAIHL
Sequence of CDK1/CCNB1 (P06493 whole entry): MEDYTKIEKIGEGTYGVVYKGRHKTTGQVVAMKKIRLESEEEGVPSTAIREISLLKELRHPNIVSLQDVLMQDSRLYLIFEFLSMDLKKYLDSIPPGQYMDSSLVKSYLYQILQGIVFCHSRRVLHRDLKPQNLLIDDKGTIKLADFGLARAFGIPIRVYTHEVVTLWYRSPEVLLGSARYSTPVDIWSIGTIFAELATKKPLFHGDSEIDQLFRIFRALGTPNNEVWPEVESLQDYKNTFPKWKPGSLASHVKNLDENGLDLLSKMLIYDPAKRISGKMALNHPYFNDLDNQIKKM
Sequence of CDK1/CCNB1 (P14635 whole entry partner): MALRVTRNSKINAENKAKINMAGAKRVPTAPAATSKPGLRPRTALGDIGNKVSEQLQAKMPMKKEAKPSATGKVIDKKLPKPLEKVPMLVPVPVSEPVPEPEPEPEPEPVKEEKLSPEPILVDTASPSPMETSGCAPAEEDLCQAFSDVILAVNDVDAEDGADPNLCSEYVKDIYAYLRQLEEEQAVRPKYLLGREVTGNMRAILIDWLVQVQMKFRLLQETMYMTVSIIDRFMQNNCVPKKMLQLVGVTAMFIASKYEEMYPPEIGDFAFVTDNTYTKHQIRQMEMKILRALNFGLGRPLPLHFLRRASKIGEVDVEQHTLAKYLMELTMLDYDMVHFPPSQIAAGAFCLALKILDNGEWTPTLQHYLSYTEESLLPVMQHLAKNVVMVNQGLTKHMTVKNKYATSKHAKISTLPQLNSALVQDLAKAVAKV
Sequence of CDK6/CCND1 (Q00534 whole entry): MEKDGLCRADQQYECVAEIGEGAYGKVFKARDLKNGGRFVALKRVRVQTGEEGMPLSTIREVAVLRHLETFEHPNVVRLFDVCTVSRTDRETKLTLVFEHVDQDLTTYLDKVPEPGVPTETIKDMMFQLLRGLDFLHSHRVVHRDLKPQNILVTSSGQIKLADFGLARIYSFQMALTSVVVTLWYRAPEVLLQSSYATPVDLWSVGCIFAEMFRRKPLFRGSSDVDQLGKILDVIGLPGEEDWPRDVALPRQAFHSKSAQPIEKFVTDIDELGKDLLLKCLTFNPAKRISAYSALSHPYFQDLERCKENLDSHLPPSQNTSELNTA
Sequence of CDK6/CCND1 (P24385 whole entry partner): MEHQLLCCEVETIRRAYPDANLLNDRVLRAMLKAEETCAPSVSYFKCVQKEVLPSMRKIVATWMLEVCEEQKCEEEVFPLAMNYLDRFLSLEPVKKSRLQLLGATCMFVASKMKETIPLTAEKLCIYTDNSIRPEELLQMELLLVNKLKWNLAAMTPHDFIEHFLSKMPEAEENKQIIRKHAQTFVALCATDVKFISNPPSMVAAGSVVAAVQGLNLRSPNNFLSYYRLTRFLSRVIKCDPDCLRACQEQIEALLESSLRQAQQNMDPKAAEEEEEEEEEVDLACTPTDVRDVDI

With `CS(=O)(=O)c1ccc(Nc2cc3c(-c4ccc5[nH]ncc5c4Cl)nccc3cn2)cc1` [Ex 183, 5-(4-chloro-1H-indazol-5-yl)-N-(4-(methylsulfonyl)phenyl)-2,6-naphthyridin-3-amine], the IC50 on CDK1/CCNB1 (setting [1]) is greater than 250 nM; on CDK2/CCNE1 (setting [2]), less than 25 nM; at CDK6/CCND1 (setting [3]), greater than 250 nM; on CDK4/CCND3 (setting [4]), 25 to 250 nM.

On to `CS(=O)(=O)c1ccc(Nc2cc3c(-c4ccc5[nH]ncc5c4F)nccc3cn2)cc1` [Ex 184, 5-(4-fluoro-1H-indazol-5-yl)-N-(4-(methylsulfonyl)phenyl)-2,6-naphthyridin-3-amine], for which the IC50 is greater than 250 nM at CDK1/CCNB1 (setting [1]), 25 to 250 nM on CDK2/CCNE1 (setting [5]), greater than 250 nM on CDK6/CCND1 (setting [3]) and 25 to 250 nM on CDK4/CCND3 (setting [4]).

For the compound `C=CS(=O)(=O)c1ccc(Nc2cc3c(-c4ccc5[nH]ccc5c4)nccc3cn2)cc1` [Ex 185, 5-(1H-indol-5-yl)-N-(4-(vinylsulfonyl)phenyl)-2,6-naphthyridin-3-amine], the IC50 on CDK1/CCNB1 (setting [1]) was greater than 250 nM; on CDK2/CCNE1 (setting [5]), 25 to 250 nM; at CDK6/CCND1 (setting [3]), greater than 250 nM; on CDK4/CCND3 (setting [6]) it was greater than 250 nM.

Turning to `N#CC1CCN(c2nccc3cnc(Nc4ccc(S(N)(=O)=O)cc4)cc23)CC1` [Ex 187, 4-((5-(4-cyanopiperidin-1-yl)-2,6-naphthyridin-3-yl)amino)benzenesulfonamide], the IC50 at CDK1/CCNB1 (setting [7]) was 25 to 250 nM; on CDK2/CCNE1 (setting [2]), less than 25 nM; at CDK6/CCND1 (setting [8]) it was 25 to 250 nM; on CDK4/CCND3 (setting [4]), 25 to 250 nM.

Consider `CS(=O)(=O)c1ccc(Nc2cc3c(C4CCN(C(=O)Nc5cccnc5)CC4)nccc3cn2)cc1` [Ex 198, 4-(7-((4-(methylsulfonyl)phenyl)amino)-2,6-naphthyridin-1-yl)-N-(pyridin-3-yl)piperidine-1-carboxamide], for which the IC50 on CDK1/CCNB1 (setting [1]), on CDK2/CCNE1 (setting [9]), on CDK6/CCND1 (setting [3]) and at CDK4/CCND3 (setting [6]) was greater than 250 nM in each case.

In the case of `COCCNC(=O)[C@H]1CC[C@H](c2nccc3cnc(Nc4ccc(S(C)(=O)=O)cc4)cc32)CC1` [Ex 199, (1r,4r)-N-(2-methoxyethyl)-4-(7-((4-(methylsulfonyl)phenyl)amino)-2,6-naphthyridin-1-yl)cyclohexane-1-carboxamide], the IC50 on CDK1/CCNB1 (setting [1]) was greater than 250 nM; on CDK2/CCNE1 (setting [5]), 25 to 250 nM; on CDK6/CCND1 (setting [3]), greater than 250 nM; at CDK4/CCND3 (setting [6]), greater than 250 nM.

Consider `CS(=O)(=O)c1ccc(Nc2cc3c(ccnc3[C@H]3CC[C@H](C(=O)NC4CCC4)CC3)cn2)cc1` [Ex 200, (1r,4r)-N-cyclobutyl-4-(7-((4-(methylsulfonyl)phenyl)amino)-2,6-naphthyridin-1-yl)cyclohexane-1-carboxamide], for which the IC50 is greater than 250 nM at CDK1/CCNB1 (setting [1]), 25 to 250 nM on CDK2/CCNE1 (setting [5]), greater than 250 nM on CDK6/CCND1 (setting [3]) and greater than 250 nM at CDK4/CCND3 (setting [6]).

With `CS(=O)(=O)c1ccc(Nc2cc3c(ccnc3[C@H]3CC[C@H](C(=O)N4CCOCC4)CC3)cn2)cc1` [Ex 201, ((1r,4r)-4-(7-((4-(methylsulfonyl)phenyl)amino)-2,6-naphthyridin-1-yl)cyclohexyl)(morpholino)methanone], the IC50 on CDK1/CCNB1 (setting [1]), on CDK2/CCNE1 (setting [9]), at CDK6/CCND1 (setting [3]) and on CDK4/CCND3 (setting [6]) was greater than 250 nM each time.

In the case of `CS(=O)(=O)c1ccc(Nc2cc3c(ccnc3[C@H]3CC[C@H](C(=O)Nc4ccccc4)CC3)cn2)cc1` [Ex 202, (1r,4r)-4-(7-((4-(methylsulfonyl)phenyl)amino)-2,6-naphthyridin-1-yl)-N-phenylcyclohexane-1-carboxamide], the IC50 at CDK1/CCNB1 (setting [1]) was greater than 250 nM; on CDK2/CCNE1 (setting [5]) it was 25 to 250 nM; at CDK6/CCND1 (setting [3]), greater than 250 nM; at CDK4/CCND3 (setting [6]) it was greater than 250 nM.

In the case of `Cc1c(-c2nccc3cnc(Nc4ccc(S(C)(=O)=O)cc4)cc23)ccc2nn(CCO)cc12` [Ex 206, 2-(4-methyl-5-(7-((4-(methylsulfonyl)phenyl)amino)-2,6-naphthyridin-1-yl)-2H-indazol-2-yl)ethan-1-ol], the IC50 is greater than 250 nM at CDK1/CCNB1 (setting [1]), 25 to 250 nM on CDK2/CCNE1 (setting [5]), greater than 250 nM on CDK6/CCND1 (setting [3]) and greater than 250 nM on CDK4/CCND3 (setting [6]).

As to `Cc1c(-c2nccc3cnc(Nc4ccc(S(C)(=O)=O)cc4)cc23)ccc2c1cnn2CC1CNC1` [Ex 207, 5-(1-(azetidin-3-ylmethyl)-4-methyl-1H-indazol-5-yl)-N-(4-(methylsulfonyl)phenyl)-2,6-naphthyridin-3-amine], the IC50 on CDK1/CCNB1 (setting [7]) is 25 to 250 nM; at CDK2/CCNE1 (setting [2]) it was less than 25 nM; at CDK6/CCND1 (<25 nM, read-out: CDK6/CCND IC50 <25 nM) it was less than 25 nM; at CDK4/CCND3 (<25 nM, read-out: CDK4/CCND IC50 <25 nM), less than 25 nM.

Take `COC(=O)[C@H]1CC[C@H](C#Cc2nccc3cnc(Nc4ccc(S(C)(=O)=O)cc4)cc23)CC1` [Ex 213, methyl (1r,4r)-4-((7-((4-(methylsulfonyl)phenyl)amino)-2,6-naphthyridin-1-yl)ethynyl)cyclohexane-1-carboxylate]: the IC50 at CDK1/CCNB1 (setting [1]) was greater than 250 nM; on CDK2/CCNE1 (setting [2]), less than 25 nM; on CDK6/CCND1 (setting [8]), 25 to 250 nM; on CDK4/CCND3 (setting [4]) it was 25 to 250 nM.

Consider `CS(=O)(=O)c1ccc(Nc2cc3c(C#CC4CC4)nccc3cn2)cc1` [Ex 214, 5-(cyclopropylethynyl)-N-(4-(methylsulfonyl)phenyl)-2,6-naphthyridin-3-amine], for which the IC50 on CDK1/CCNB1 (setting [1]) was greater than 250 nM; at CDK2/CCNE1 (setting [2]), less than 25 nM; on CDK6/CCND1 (setting [8]), 25 to 250 nM; at CDK4/CCND3 (setting [4]), 25 to 250 nM.

On to `Cc1c(-c2nccc3cnc(Nc4ccc(S(C)(=O)=O)cc4)cc23)ccc2c1cnn2CCC1CNC1` [Ex 216, 5-(1-(2-(azetidin-3-yl)ethyl)-4-methyl-1H-indazol-5-yl)-N-(4-(methylsulfonyl)phenyl)-2,6-naphthyridin-3-amine], for which the IC50 on CDK1/CCNB1 (setting [1]) was greater than 250 nM; at CDK2/CCNE1 (setting [5]), 25 to 250 nM; at CDK6/CCND1 (setting [3]), greater than 250 nM; on CDK4/CCND3 (setting [6]), greater than 250 nM.

Turning to `C=CS(=O)(=O)c1ccc(Nc2cc3c(-c4cccc(CO)c4)nccc3cn2)cc1` [Ex 217, (3-(7-((4-(vinylsulfonyl)phenyl)amino)-2,6-naphthyridin-1-yl)phenyl)methanol], the IC50 at CDK1/CCNB1 (setting [1]) was greater than 250 nM; on CDK2/CCNE1 (setting [5]) it was 25 to 250 nM; at CDK6/CCND1 (setting [3]), greater than 250 nM; on CDK4/CCND3 (setting [6]), greater than 250 nM.

For `COc1c(-c2nccc3cnc(Nc4ccc(S(C)(=O)=O)cc4)cc23)ccc2[nH]ncc12` [Ex 220, 5-(4-methoxy-1H-indazol-5-yl)-N-(4-(methylsulfonyl)phenyl)-2,6-naphthyridin-3-amine], the IC50 at CDK1/CCNB1 (setting [1]) is greater than 250 nM; at CDK2/CCNE1 (setting [5]) it was 25 to 250 nM; at CDK6/CCND1 (setting [3]) it was greater than 250 nM; at CDK4/CCND3 (setting [6]), greater than 250 nM.

As to `Cc1cc2[nH]ncc2cc1-c1nccc2cnc(Nc3ccc(S(=O)(=O)CCO)cc3)cc12` [Ex 222, 2-((4-((5-(6-methyl-1H-indazol-5-yl)-2,6-naphthyridin-3-yl)amino)phenyl)sulfonyl)ethan-1-ol], the IC50 was greater than 250 nM at CDK1/CCNB1 (setting [1]), 25 to 250 nM on CDK2/CCNE1 (setting [5]), greater than 250 nM at CDK6/CCND1 (setting [3]) and greater than 250 nM at CDK4/CCND3 (setting [6]).

`CS(=O)(=O)c1ccc(Nc2cc3c(ccnc3[C@H]3CC[C@H](C(N)=O)CC3)cn2)cc1` [Ex 223, (1r,4r)-4-(7-((4-(methylsulfonyl)phenyl)amino)-2,6-naphthyridin-1-yl)cyclohexane-1-carboxamide]: the IC50 is greater than 250 nM on CDK1/CCNB1 (setting [1]), 25 to 250 nM at CDK2/CCNE1 (setting [5]), greater than 250 nM on CDK6/CCND1 (setting [3]) and 25 to 250 nM on CDK4/CCND3 (setting [4]).
